Reference: ChEMBL document CHEMBL4706512, “Design, synthesis and antitumor activity of novel thiophene-pyrimidine derivatives as EGFR inhibitors overcoming T790M and L858R/T790M mutations” (Eur J Med Chem, 2020)

Experiments:
HeLa = test: Antiproliferative activity against human HeLa cells assessed as inhibition of cell proliferation measured after 72 hrs by MTT assay; format: functional, cell-based
MCF7 = test: Antiproliferative activity against human MCF7 cells assessed as inhibition of cell proliferation measured after 72 hrs by MTT assay; format: functional, cell-based; conditions: MCF7, 72 h
A549 = test: Antiproliferative activity against human A549 cells assessed as inhibition of cell proliferation measured after 72 hrs by MTT assay; format: functional, cell-based; conditions: A549, 72 h
A-431 [1] = test: Antiproliferative activity against human A-431 cells assessed as inhibition of cell proliferation measured after 72 hrs by MTT assay; format: functional, cell-based; conditions: A-431, 72 h
L02 = test: Cytotoxicity against human L02 cells assessed as inhibition of cell proliferation measured after 72 hrs by MTT assay; format: cell-based; conditions: L02, 72 h
NCI-H1975 [2] = test: Antiproliferative activity against human NCI-H1975 cells harboring EGFR T790M/L858R double mutant assessed as inhibition of cell viability at 1 uM measured after 72 hrs by MTT assay; format: functional
[3] = Inhibition of EGFR T790M mutant (unknown origin) using FAM-labelled peptide as substrate incubated for 10 mins in presence of ATP measured by mobility shift assay; set-up: species or system Homo sapiens
Homo sapiens [4] = species on record: Homo sapiens; test: Inhibition of EGFR T790M mutant (unknown origin) using FAM-labelled peptide as substrate at 1 uM incubated for 10 mins in presence of ATP measured by mobility shift assay
A-431 [5] = test: Induction of apoptosis in human A-431 cells assessed as early apoptotic cells at 5 uM measured after 48 hrs by Annexin V-FITC staining based flow cytometry (reference value: 2.1%); format: functional
[6] = Inhibition of EGFR T790M/L858R double mutant (unknown origin) using FAM-labelled peptide as substrate incubated for 10 mins in presence of ATP measured by mobility shift assay; set-up: species or system Homo sapiens
NCI-H1975 [7] = test: Antiproliferative activity against human NCI-H1975 cells harboring EGFR T790M/L858R double mutant assessed as inhibition of cell viability measured after 72 hrs by MTT assay; format: functional, cell-based; conditions: NCI-H1975, 72 h
NCI-H1975 [8] = test: Antiproliferative activity against human NCI-H1975 cells harboring EGFR T790M/L858R double mutant assessed as inhibition of cell viability at 10 uM measured after 72 hrs by MTT assay; format: functional
A-431 [9] = test: Induction of apoptosis in human A-431 cells assessed as late apoptotic cells at 5 uM measured after 48 hrs by Annexin V-FITC staining based flow cytometry (reference value: 2.02%); format: functional
A-431 [10] = test: Induction of apoptosis in human A-431 cells assessed as necrotic cells at 5 uM measured after 48 hrs by Annexin V-FITC staining based flow cytometry (reference value: 0.21%); format: functional
A-431 [11] = test: Induction of apoptosis in human A-431 cells assessed as viable cells at 5 uM measured after 48 hrs by Annexin V-FITC staining based flow cytometry (reference value: 95.67%); format: functional; conditions: read-out: Activity
[12] = target: T1, Epidermal growth factor receptor (Homo sapiens, UniProt P00533); test: Inhibition of wild type EGFR (unknown origin) using FAM-labelled peptide as substrate at 1 uM incubated for 10 mins in presence of ATP measured by mobility shift assay
T1 sequence (P00533 whole entry): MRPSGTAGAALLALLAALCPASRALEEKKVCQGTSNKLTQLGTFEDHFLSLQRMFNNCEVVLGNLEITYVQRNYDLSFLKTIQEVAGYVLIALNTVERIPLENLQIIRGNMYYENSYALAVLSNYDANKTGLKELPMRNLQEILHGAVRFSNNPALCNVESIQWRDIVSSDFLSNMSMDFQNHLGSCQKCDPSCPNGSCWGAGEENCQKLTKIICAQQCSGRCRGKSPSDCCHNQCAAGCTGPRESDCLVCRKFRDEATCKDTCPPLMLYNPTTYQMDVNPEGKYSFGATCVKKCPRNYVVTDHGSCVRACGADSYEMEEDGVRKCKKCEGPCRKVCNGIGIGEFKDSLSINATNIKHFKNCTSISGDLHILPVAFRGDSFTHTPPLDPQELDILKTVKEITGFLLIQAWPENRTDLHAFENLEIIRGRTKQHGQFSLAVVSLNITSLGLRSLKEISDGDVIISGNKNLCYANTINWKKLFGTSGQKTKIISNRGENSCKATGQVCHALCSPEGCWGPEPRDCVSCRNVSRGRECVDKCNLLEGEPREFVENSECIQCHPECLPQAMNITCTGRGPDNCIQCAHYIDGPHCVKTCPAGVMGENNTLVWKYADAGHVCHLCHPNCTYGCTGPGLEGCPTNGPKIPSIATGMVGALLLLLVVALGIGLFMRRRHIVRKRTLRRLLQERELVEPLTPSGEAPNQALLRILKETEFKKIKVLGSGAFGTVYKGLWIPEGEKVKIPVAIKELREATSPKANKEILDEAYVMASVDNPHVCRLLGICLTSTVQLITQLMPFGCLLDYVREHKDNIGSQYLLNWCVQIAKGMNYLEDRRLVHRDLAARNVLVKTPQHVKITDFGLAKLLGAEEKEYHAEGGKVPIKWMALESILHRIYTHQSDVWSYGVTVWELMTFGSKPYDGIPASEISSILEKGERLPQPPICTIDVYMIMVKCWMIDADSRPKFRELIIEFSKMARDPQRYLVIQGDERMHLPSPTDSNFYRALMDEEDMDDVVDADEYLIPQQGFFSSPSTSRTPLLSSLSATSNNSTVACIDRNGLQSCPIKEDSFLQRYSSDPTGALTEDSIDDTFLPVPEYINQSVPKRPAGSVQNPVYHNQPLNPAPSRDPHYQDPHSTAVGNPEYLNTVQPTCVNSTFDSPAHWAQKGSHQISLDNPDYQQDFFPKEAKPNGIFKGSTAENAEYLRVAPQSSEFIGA

[13] = target: T1, Epidermal growth factor receptor; test: Inhibition of wild type EGFR (unknown origin) using FAM-labelled peptide as substrate incubated for 10 mins in presence of ATP measured by mobility shift assay
Homo sapiens [14] = species on record: Homo sapiens; test: Inhibition of PI3K (unknown origin) using FAM-labelled peptide as substrate at 1 uM incubated for 10 mins in presence of ATP measured by mobility shift assay
[15] = target: Vascular endothelial growth factor receptor 2 (Homo sapiens) (UniProt P35968); test: Inhibition of KDR (unknown origin) using FAM-labelled peptide as substrate at 1 uM incubated for 10 mins in presence of ATP measured by mobility shift assay
Chain of Vascular endothelial growth factor receptor 2 (Homo sapiens) (P35968 whole entry): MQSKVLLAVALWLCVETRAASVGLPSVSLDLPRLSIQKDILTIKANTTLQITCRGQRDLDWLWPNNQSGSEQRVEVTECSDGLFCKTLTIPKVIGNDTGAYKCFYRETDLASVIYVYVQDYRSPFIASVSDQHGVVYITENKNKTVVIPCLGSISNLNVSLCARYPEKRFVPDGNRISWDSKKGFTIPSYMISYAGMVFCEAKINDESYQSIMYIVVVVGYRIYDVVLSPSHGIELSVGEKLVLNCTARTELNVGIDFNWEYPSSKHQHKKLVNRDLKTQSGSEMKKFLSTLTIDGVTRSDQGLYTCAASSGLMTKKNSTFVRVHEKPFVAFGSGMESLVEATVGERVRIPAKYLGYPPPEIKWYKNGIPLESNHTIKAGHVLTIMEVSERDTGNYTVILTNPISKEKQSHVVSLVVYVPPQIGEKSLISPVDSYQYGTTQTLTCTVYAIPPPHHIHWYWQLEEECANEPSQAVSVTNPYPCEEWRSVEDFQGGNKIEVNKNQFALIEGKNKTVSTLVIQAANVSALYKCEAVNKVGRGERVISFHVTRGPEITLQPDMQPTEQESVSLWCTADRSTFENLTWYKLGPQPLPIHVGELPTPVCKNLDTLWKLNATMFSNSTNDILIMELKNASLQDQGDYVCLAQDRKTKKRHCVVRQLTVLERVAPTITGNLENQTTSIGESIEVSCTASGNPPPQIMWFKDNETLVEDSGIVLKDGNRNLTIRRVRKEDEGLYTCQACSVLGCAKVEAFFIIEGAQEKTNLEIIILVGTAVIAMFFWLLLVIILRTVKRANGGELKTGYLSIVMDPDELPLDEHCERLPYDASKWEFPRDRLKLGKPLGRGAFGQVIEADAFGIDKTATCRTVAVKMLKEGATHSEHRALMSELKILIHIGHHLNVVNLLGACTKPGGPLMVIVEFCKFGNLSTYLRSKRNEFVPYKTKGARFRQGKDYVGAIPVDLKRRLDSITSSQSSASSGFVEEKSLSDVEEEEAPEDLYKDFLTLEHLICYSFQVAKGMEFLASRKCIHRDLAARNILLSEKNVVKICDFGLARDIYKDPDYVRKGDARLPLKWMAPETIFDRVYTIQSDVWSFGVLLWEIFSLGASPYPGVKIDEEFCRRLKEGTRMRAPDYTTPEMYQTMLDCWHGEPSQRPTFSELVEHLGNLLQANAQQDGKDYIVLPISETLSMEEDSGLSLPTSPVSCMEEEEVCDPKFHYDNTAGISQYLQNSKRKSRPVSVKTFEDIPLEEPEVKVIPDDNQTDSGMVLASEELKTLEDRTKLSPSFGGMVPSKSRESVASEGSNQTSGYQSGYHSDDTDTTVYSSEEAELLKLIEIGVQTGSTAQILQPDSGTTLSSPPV

[16] = target: Serine/threonine-protein kinase mTOR (Homo sapiens) (UniProt P42345); test: Inhibition of mTOR (unknown origin) using FAM-labelled peptide as substrate at 1 uM incubated for 10 mins in presence of ATP measured by mobility shift assay
[17] = target: Hepatocyte growth factor receptor (Homo sapiens) (UniProt P08581); test: Inhibition of c-MET (unknown origin) using FAM-labelled peptide as substrate at 1 uM incubated for 10 mins in presence of ATP measured by mobility shift assay
Chain of Hepatocyte growth factor receptor (Homo sapiens) (P08581 whole entry): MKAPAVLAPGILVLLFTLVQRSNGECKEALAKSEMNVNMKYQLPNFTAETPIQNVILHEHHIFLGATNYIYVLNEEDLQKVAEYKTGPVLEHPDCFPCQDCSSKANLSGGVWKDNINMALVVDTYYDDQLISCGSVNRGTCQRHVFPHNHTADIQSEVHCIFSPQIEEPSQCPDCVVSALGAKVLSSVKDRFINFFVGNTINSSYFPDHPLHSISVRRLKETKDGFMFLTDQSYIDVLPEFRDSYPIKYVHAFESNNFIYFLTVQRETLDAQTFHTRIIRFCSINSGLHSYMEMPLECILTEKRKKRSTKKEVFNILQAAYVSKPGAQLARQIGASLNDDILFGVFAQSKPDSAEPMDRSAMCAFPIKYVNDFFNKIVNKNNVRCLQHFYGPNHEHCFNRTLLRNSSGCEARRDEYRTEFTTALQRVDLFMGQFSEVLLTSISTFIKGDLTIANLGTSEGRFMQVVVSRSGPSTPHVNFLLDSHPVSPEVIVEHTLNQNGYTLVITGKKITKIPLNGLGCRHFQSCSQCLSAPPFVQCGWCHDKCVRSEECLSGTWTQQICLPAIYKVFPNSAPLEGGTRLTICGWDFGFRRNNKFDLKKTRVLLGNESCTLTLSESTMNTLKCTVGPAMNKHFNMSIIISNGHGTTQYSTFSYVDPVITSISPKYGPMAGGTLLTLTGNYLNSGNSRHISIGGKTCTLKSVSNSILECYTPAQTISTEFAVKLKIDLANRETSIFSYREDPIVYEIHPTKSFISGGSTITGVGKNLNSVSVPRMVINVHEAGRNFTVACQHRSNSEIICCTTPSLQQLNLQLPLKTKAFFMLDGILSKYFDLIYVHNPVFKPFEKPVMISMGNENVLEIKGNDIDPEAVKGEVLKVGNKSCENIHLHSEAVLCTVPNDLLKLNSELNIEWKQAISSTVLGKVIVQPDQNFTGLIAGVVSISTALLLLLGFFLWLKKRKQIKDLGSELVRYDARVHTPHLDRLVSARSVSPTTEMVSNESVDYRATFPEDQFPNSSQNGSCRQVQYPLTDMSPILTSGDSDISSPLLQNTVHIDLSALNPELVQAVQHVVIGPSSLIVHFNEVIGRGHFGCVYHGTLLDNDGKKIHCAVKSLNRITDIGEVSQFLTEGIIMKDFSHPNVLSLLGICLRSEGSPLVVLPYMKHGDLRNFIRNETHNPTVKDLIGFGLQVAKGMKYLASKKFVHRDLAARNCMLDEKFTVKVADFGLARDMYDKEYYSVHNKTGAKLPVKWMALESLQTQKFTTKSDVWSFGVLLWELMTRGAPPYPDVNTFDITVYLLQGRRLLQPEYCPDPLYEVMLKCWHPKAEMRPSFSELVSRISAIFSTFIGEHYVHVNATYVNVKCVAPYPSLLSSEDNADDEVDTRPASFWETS

Homo sapiens [18] = species on record: Homo sapiens; test: Selectivity ratio of IC50 for wild type EGFR (unknown origin) to IC50 for EGFR T790M mutant (unknown origin) measured by mobility shift assay
Homo sapiens [19] = species on record: Homo sapiens; test: Selectivity ratio of IC50 for wild type EGFR (unknown origin) to IC50 for EGFR T790M/L858R double mutant (unknown origin) measured by mobility shift assay
Homo sapiens [20] = species on record: Homo sapiens; test: Inhibition of EGFR T790M/L858R double mutant (unknown origin) using FAM-labelled peptide as substrate at 1 uM incubated for 10 mins in presence of ATP measured by mobility shift assay

Row | IC50 (HeLa) [µM] | IC50 (MCF7) [µM] | IC50 (A549) [µM] | IC50 (A-431 [1]) [µM] | Structure (SMILES) | IC50 (L02) [µM] | other results
1 | > 50 | > 50 | > 50 | > 50 | COc1ccc(Nc2nc(Oc3cccc(NC(=O)/C=C/C(C)C)c3)c3sccc3n2)cn1 | – | –
2 | 49.9 | > 50 | 25.8 | 26.2 | CC/C=C/C(=O)Nc1cccc(Oc2nc(Nc3ccc(OC)nc3)nc3ccsc23)c1 | > 50 | –
3 | > 50 | > 50 | 21.5 | 30.3 | CCC/C=C/C(=O)Nc1cccc(Oc2nc(Nc3ccc(OC)nc3)nc3ccsc23)c1 | 41.6 | –
4 | > 50 | > 50 | 31.9 | 37.2 | C/C=C/C(=O)Nc1cccc(Oc2nc(Nc3ccc(OC)nc3)nc3ccsc23)c1 | > 50 | –
5 | 42.1 | 49.1 | 16.7 | 20.4 | CCC/C=C/C(=O)Nc1cccc(Oc2nc(Nc3cccc(C#N)c3)nc3ccsc23)c1 | > 50 | –
6 | 29.4 | 43.4 | 19.6 | 29.2 | CC/C=C/C(=O)Nc1cccc(Oc2nc(Nc3cccc(OC)c3)nc3ccsc23)c1 | > 50 | –
7 | 7.73 | 5.02 | 5.56 | 8.09 | CCC/C=C/C(=O)Nc1cccc(Oc2nc(Nc3cccc(OC)c3)nc3ccsc23)c1 | > 50 | inhibition at 1 µM (NCI-H1975 [2]): -0.18%; IC50 [3]: > 1000 nM; inhibition (Homo sapiens [4]): 24.5%; inhibition [12]: 4%; IC50 [13]: > 1000 nM; inhibition at 10 µM (NCI-H1975 [8]): 14.6%
8 | > 100 | > 100 | 40.1 | > 50 | COc1ccc(Nc2nc(Oc3cccc(NC(=O)C=C(C)C)c3)c3sccc3n2)cn1 | 36.9 | –
9 | 69.4 | > 50 | 14.9 | 36.2 | CC/C=C/C(=O)Nc1cccc(Oc2nc(Nc3cccc(C#N)c3)nc3ccsc23)c1 | > 50 | –
10 | 45.1 | > 50 | 13.7 | 11.8 | C/C=C/C(=O)Nc1cccc(Oc2nc(Nc3ccc(OC)cc3)nc3ccsc23)c1 | > 50 | –
11 | 20.1 | 14.6 | 10.5 | 13.1 | C/C=C/C(=O)Nc1cccc(Oc2nc(Nc3cccc(OC)c3)nc3ccsc23)c1 | 46 | –
12 | 26.1 | 16 | 8.61 | 9.3 | C=CC(=O)Nc1cccc(Oc2nc(Nc3ccc(OC)cc3)nc3ccsc23)c1 | > 50 | inhibition at 1 µM (NCI-H1975 [2]): 59.1%; IC50 (NCI-H1975 [7]): 207 nM; inhibition at 10 µM (NCI-H1975 [8]): 83.8%
13 | 31.4 | 35 | 5.21 | 4.22 | CCC/C=C/C(=O)Nc1cccc(Oc2nc(Nc3ccc(OC)cc3)nc3ccsc23)c1 | > 50 | inhibition at 1 µM (NCI-H1975 [2]): 3.25%; IC50 [3]: > 1000 nM; inhibition (Homo sapiens [4]): 21.7%; inhibition [12]: 7.4%; IC50 [13]: > 1000 nM; IC50 (NCI-H1975 [7]): 2140 nM; inhibition at 10 µM (NCI-H1975 [8]): 94.3%
14 | 45.1 | > 50 | 37.9 | 25.2 | COc1ccc(Nc2nc(Oc3cccc(NC(=O)/C=C/C(C)C)c3)c3sccc3n2)cc1 | – | –
15 | 16.4 | 19 | 4.34 | 4.79 | C=CC(=O)Nc1cccc(Oc2nc(Nc3cccc(OC)c3)nc3ccsc23)c1 | 30.3 | inhibition at 1 µM (NCI-H1975 [2]): 50.6%; IC50 [3]: 76.6 nM; inhibition (Homo sapiens [4]): 94.8%; inhibition [12]: 24%; IC50 [13]: > 1000 nM; inhibition (Homo sapiens [14]): 31.6%; IC50 [6]: 15.3 nM; IC50 (NCI-H1975 [7]): 418 nM; inhibition [15]: -0.2%; inhibition at 10 µM (NCI-H1975 [8]): 86.8%; inhibition [16]: 9.7%; inhibition [17]: 0.5%; Selectivity ratio (Homo sapiens [18]): > 13; Selectivity ratio (Homo sapiens [19]): > 65; inhibition (Homo sapiens [20]): 104%
16 | 47.1 | > 50 | 20.4 | 27.8 | C=CC(=O)Nc1cccc(Oc2nc(Nc3ccc(OC)nc3)nc3ccsc23)c1 | > 50 | –
17 | 49.4 | > 50 | 25.6 | 36.2 | CC/C=C/C(=O)Nc1cccc(Oc2nc(Nc3ccn(C)n3)nc3ccsc23)c1 | – | –
18 | 27 | 43.9 | 37.1 | 23.4 | COc1cccc(Nc2nc(Oc3cccc(NC(=O)/C=C/C(C)C)c3)c3sccc3n2)c1 | – | –
19 | 36.1 | > 50 | 16.1 | 15.1 | CC/C=C/C(=O)Nc1cccc(Oc2nc(Nc3ccc(OC)cc3)nc3ccsc23)c1 | > 50 | –

Second part, the compound before the results:

Row | Structure (SMILES) | IC50 (HeLa) [µM] | IC50 (MCF7) [µM] | IC50 (A549) [µM] | IC50 (A-431 [1]) [µM] | IC50 (L02) [µM] | other results
20 | CC(C)=CC(=O)Nc1cccc(Oc2nc(Nc3cccc(C#N)c3)nc3ccsc23)c1 | 19.8 | 41.1 | 16.9 | 28.3 | > 50 | –
21 | CC(C)/C=C/C(=O)Nc1cccc(Oc2nc(Nc3cccc(C#N)c3)nc3ccsc23)c1 | 36.5 | > 50 | 19 | 24.1 | > 50 | –
22 | C/C=C/C(=O)Nc1cccc(Oc2nc(Nc3cccc(C#N)c3)nc3ccsc23)c1 | 23.6 | 33.1 | 11.3 | 20.1 | 47.9 | –
23 | COc1ccc(Nc2nc(Oc3cccc(NC(=O)C=C(C)C)c3)c3sccc3n2)cc1 | 28.8 | 46.1 | 18.1 | 17.6 | 48.9 | –
24 | CCC/C=C/C(=O)Nc1cccc(Oc2nc(Nc3ccn(C)n3)nc3ccsc23)c1 | 32.2 | 39.1 | 26.3 | 23.4 | – | –
25 | C=C(C)C(=O)Nc1cccc(Oc2nc(Nc3ccn(C)n3)nc3ccsc23)c1 | > 50 | > 50 | > 50 | > 50 | – | –
26 | C=CC(=O)Nc1cccc(Oc2nc(Nc3ccc(N4CCN(C)CC4)cc3)nc3ccsc23)c1 [OLMUTINIB] | 9.27 | 6.9 | 4.29 | 5.29 | 25.5 | inhibition at 1 µM (NCI-H1975 [2]): 6.08%; IC50 [3]: 48 nM; inhibition (Homo sapiens [4]): 98.1%; Activity (A-431 [5]): 5.17%; IC50 [6]: 12.7 nM; IC50 (NCI-H1975 [7]): 520 nM; inhibition at 10 µM (NCI-H1975 [8]): 74.6%; Activity (A-431 [9]): 14.78%; Activity (A-431 [10]): 1.37%; viability at 5 µM (A-431 [11]): 78.7%
27 | C=CC(=O)Nc1cccc(Oc2nc(Nc3ccn(C)n3)nc3ccsc23)c1 | 17.3 | 37.6 | 26.5 | 13.9 | – | –
28 | C/C=C/C(=O)Nc1cccc(Oc2nc(Nc3ccn(C)n3)nc3ccsc23)c1 | 43.5 | > 50 | 29.5 | 33.3 | – | –
29 | C=C(F)C(=O)Nc1cccc(Oc2nc(Nc3ccn(C)n3)nc3ccsc23)c1 | > 50 | > 50 | > 50 | > 50 | – | –
30 | CC(C)=CC(=O)Nc1cccc(Oc2nc(Nc3ccn(C)n3)nc3ccsc23)c1 | 39.6 | 43.9 | 31.9 | 38.9 | – | –
31 | COc1cccc(Nc2nc(Oc3cccc(NC(=O)C=C(C)C)c3)c3sccc3n2)c1 | 26.1 | 35.8 | 27.7 | 25.8 | – | –
32 | CC(C)/C=C/C(=O)Nc1cccc(Oc2nc(Nc3ccn(C)n3)nc3ccsc23)c1 | 48.8 | > 50 | 29.9 | 46.1 | – | –
33 | C=CC(=O)Nc1cc(Nc2nccc(-c3cn(C)c4ccccc34)n2)c(OC)cc1N(C)CCN(C)C [OSIMERTINIB] | 1.83 | 3.67 | 0.67 | […] | > 50 | –
